Results on 8 compounds are retold here after US20230029385A1, “2-METHYL-AZA-QUINAZOLINES” (Bayer Aktiengesellschaft, priority 2019, published 2023).

In assay [1] the target is T1, hK-RasG12C activation by hSOS1 (Homo sapiens, UniProt Q07889).
T1 construct: His10-hSOS1; made in house; host or cells: E. coli BL21 (DE3)
T1 sequence (Q07889 with tags, fused parts or gaps): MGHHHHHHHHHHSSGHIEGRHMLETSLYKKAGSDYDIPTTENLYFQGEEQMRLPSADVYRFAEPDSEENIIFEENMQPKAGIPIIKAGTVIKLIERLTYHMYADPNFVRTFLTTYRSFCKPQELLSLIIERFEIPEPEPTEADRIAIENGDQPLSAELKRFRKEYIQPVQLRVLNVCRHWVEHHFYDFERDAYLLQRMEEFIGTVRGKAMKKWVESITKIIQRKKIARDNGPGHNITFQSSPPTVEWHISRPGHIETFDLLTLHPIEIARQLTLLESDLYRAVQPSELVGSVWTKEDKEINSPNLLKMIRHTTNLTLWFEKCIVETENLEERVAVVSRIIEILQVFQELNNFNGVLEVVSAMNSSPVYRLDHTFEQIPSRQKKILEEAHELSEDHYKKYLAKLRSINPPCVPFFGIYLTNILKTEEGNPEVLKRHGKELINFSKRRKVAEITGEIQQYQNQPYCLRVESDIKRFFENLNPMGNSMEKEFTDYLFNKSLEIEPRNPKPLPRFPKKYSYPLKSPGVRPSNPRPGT
The assay is described as follows: hK-RasG12C activation assay by hSOS1 (Biochemical Assay 3, HTRF). As to conditions: mean; assay 3, loading with fluorescent GTP-analog; read-out: K-RasG12C activation by SOS IC50 - [mol/l] (mean). The text has this: Biochemical Assay 3: hK-RasG12C Activation Assay by hSOS1
K-Ras is a small GTPase that can bind GDP and GTP. The guanine nucleotide exchange factor SOS1 catalyzes the activation of K-Ras by promoting the exchange of GDP to GTP. SOS1 binds to K-Ras-GDP thereby opening the GDP-binding pocket to facilitate GDP release. Rebinding of excess nucleotide leads to dissociation of the K-Ras-SOS1 intermediate complex leaving K-Ras loaded with the nucleotide.
This assay quantifies human SOS1- (hSOS1-) mediated loading of human K-Ras^G12C-GDP (hK-RasG12C-GDP) with a fluorescent GTP-analog. Detection of successful loading is achieved by measuring homogenous time-resolved fluorescence resonance energy transfer (HTRF) from antiGST-Terbium (FRET donor) bound to GST-hK-RasG12C (see below) to the loaded fluorescent GTP analog (FRET-acceptor).
The fluorescent GTP-analog EDA-GTP-Dy647P1 (2′/3′-O-(2-Aminoethyl-carbamoyl)-guanosine-5′-triphosphate labelled with Dy647P1 (Dyomics GmbH, Germany)) is synthesized by Jena Biosciences GmbH (Germany) and supplied as a 1mM aqueous solution.
(§1) The assay buffer containes 10 mM HEPES pH 7.4 (Applichem), 150 mM NaCl (Sigma), 5 mM MgCl2 (Sigma), 1 mM DTT (Thermofisher), 0.05% BSA Fraction V, pH 7.0, (ICN Biomedicals), 0.0025% (v/v) Igepal (Sigma).
The expression and purification of N-terminal GST-tagged human K-RasG12C and N-terminal His-tagged hSOS1 is described below. Concentrations of protein batches used are optimized to be within the linear range of the HTRF signal. A hRas working solution is prepared in assay buffer containing typically 100 nM GST-hK-RasG12C and 2 nM antiGST-Tb (Cisbio, France). A hSOS1 working solution is prepared in assay buffer containing typically 20nM hSOS1 and 200 nM EDA-GTP-Dy647P1. An inhibitor control solution is prepared in assay buffer containing 200 nM EDA-GTP-Dy647P1 without hSOS1.
(§2) Fifty nl of a 100-fold concentrated solution of the test compound in DMSO are transferred into a black microtiter test plate (384 or 1536, Greiner Bio-One, Germany). For this, either a Hummingbird liquid handler (Digilab, Mass., USA) or an Echo acoustic system (Labcyte, Calif., USA) is used.
All steps of the assay are performed at 20° C. A volume of 2.5 μl of the hRas working solution is added to all wells of the test plate using a Multidrop dispenser (Thermo Labsystems). After 10 min preincubation, 2.5 μl of the hSOS1 working solution are added to all wells except for those wells at the side of the test plate that are subsequently filled with 2.5 μl of the inhibitor control solution. After 30 min incubation the fluorescence is measured with a Pherastar (BMG, Germany) using the HTRF module (excitation 337 nm, emission 1: 620 nm, emission 2: 665 nm).
(§3) The ratiometric data (emission 2 divided by emission 1) are normalized using the controls (DMSO=0% inhibition, inhibition control wells with inhibitor control solution=100% inhibition). Compounds are tested in duplicates at up to 11 concentrations (for example 20 μM, 5.7 μM, 1.6 μM, 0.47 μM, 0.13 μM, 38 nM, 11 nM, 3.1 nM, 0.89 nM, 0.25 nM and 0.073 nM). IC50 values are calculated by 4-Parameter fitting using a commercial software package (Genedata Screener, Switzerland).
For orientation: In TR-FRET formats the signal depends on donor and acceptor labels being close together.

Assay [2] has as its target T2, K-Ras-wt activation by SOS (Homo sapiens, UniProt Q07889).
T2 sequence (Q07889 564-1049): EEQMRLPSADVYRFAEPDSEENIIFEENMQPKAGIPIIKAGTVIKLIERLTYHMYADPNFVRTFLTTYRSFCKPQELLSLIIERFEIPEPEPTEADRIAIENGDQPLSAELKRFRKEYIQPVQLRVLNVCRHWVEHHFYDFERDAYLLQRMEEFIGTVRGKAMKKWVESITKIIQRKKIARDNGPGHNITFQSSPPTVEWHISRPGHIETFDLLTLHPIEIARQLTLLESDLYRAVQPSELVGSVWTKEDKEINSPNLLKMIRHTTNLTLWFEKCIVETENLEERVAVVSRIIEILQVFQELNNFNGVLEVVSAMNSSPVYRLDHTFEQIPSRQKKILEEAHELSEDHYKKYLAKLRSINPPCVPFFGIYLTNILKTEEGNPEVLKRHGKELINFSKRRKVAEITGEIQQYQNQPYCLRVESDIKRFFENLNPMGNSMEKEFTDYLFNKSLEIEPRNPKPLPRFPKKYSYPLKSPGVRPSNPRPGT
The assay is described as follows: K-Ras-wt activation by SOS. The class given is biochemical. The following applies: mean; K-Ras wild type; read-out: K-Ras-wt activation by SOS IC50 - [mol/l] (mean).

The target in assay [3] is T3, hK-RasG12C activation by hSOS1 at high GTP concentration (Homo sapiens, UniProt Q07889).
T3 construct: His10-hSOS1; made in house; host or cells: E. coli BL21 (DE3)
T3 sequence (Q07889 with tags, fused parts or gaps): T1 sequence (Q07889 with tags, fused parts or gaps)
In words: hK-RasG12C activation assay by hSOS1 at high GTP concentration (Biochemical Assay 2, HTRF). As to conditions: mean; assay 2, high concentration of 50 μM GTP; read-out: K-Ras activation by SOS high GTP (off-HTRF) IC50 - [mol/l] (mean).
Source text: Biochemical Assay 2: hK-RasG12C Activation Assay by hSOS1 at High GTP Concentration
This assay quantifies human SOS1-mediated nucleotide exchange of human K-Ras^G12C (hK-RasG12C) preloaded with a fluorescent […] and in presence of an excess of free GTP. Loaded hK-RasG12C generates a high HTRF-signal by energy transfer from antiGST-Terbium (FRET donor) bound to hK-Ras to the loaded fluorescent GDP analog (FRET-acceptor). hSOS1 activity exchanges the fluorescent GDP for non-fluorescent GTP and therefore leads to a reduction of the HTRF signal.
The fluorescent GDP-analog EDA-GDP-Dy647P1 (2′/3′-O-(2-Aminoethyl-carbamoyl)-guanosine-5′-diphosphate labelled with Dy647P1 (Dyomics GmbH, Germany)) is synthesized by Jena Biosciences GmbH (Germany) and supplied as a 1 mM aqueous solution.
The expression and purification of N-terminal GST-tagged human K-RasG12C and N-terminal His-tagged human SOS1 is described below. Concentrations of protein batches used are optimized to be within the linear range of the HTRF signal.
Preparation of GST-tagged hK-RasG12C loaded with fluorescent nucleotide is performed as follows: incubation of 11.5 μM hK-Ras^G12C with 5-fold excess GDP-Dy647 nucleotide (54 μM) in 500 μl NLS-buffer (RAS activation Kit Jena Bioscience, Kat. #PR-950) for 10 min at 37° C. Addition of 20 μl 1 M MgCl2 (Sigma) to final 40 mM and store on ice. Purification into buffer (10 mM HEPES pH 7.4 (Applichem), 150 mM NaCl (Sigma), 5 mM MgCl2 (Sigma)) by use of a PD-Minitrap desalting column (GE Healthcare). Concentration of 1 ml purified hK-Ras-GDP-Dy647 is approx. 4-5 μM.
as §1
A Ras working solution is prepared in assay buffer containing typically 80 nM loaded GST-hK-RasG12C-EDA-GDP-Dy647P1 and 2 nM antiGST-Tb (Cisbio, France). A hSOS1 working solution is prepared in assay buffer containing typically 8 nM His-hSOS1 and 100 μM GTP (Jena Bioscience, Germany). An inhibitor control solution is prepared in assay buffer containing the same concentration of hSOS1 without GTP.
Alternatively, the inhibitor control solution is prepared by supplementing the hSOS1 working solution with 20 μM of 6,7-dimethoxy-N-[(1R)-1-(1-naphthyl)ethyl]quinazolin-4-amine which is used to calibrate the assay.
as §2
All steps of the assay are performed at 20° C. A volume of 2.5 μl of the Ras working solution is added to all wells of the test plate using a Multidrop dispenser (Thermo Labsystems). After 2 min preincubation, 2.5 μl of the hSOS1 working solution are added to all wells except for those wells at the side of the test plate that are subsequently filled with 2.5 μl of the inhibitor control solution. After 20 min incubation the fluorescence is measured with a Pherastar (BMG, Germany) using the HTRF module (excitation 337 nm, emission 1: 620 nm, emission 2: 665 nm).
as §3

In assay [4] the target is T4, human SOS1 (hSOS1) with human K-RasG12C (hK-RasG12C) (Homo sapiens, UniProt Q07889).
T4 construct: His10-hSOS1; made in house; host or cells: E. coli BL21 (DE3)
T4 sequence (Q07889 with tags, fused parts or gaps): T1 sequence (Q07889 with tags, fused parts or gaps)
In words: hK-RasG12C interaction assay with hSOS1 (Biochemical Assay 1, HTRF). The class given is binding. As to conditions: mean, read-out: K-RasG12C- SOS interaction assay IC50 - [mol/l] (mean). The method, then: Biochemical Assay 1: hK-RasG12C Interaction Assay with hSOS1
This assay quantifies the equilibrium interaction of human SOS1 (hSOS1) with human K-Ras^G12C (hK-RasG12C). Detection of the interaction is achieved by measuring homogenous time-resolved fluorescence resonance energy transfer (HTRF) from antiGST-Europium (FRET donor) bound to GST-K-RasG12C to anti-6His-XL665 bound to His-tagged hSOS1 (FRET-acceptor).
The assay buffer containes 5 mM HEPES pH 7.4 (Applichem), 150 mM NaCl (Sigma), 10 mM EDTA (Promega), 1 mM DTT (Thermofisher), 0.05% BSA Fraction V, pH 7.0, (ICN Biomedicals), 0.0025% (v/v) Igepal (Sigma) and 100 mM KF (FLUKA).
The expression and purification of N-terminal GST-tagged hK-RasG12C and N-terminal His-tagged hSOS1 is described below. Concentrations of protein batches used are optimized to be within the linear range of the HTRF signal. A Ras working solution is prepared in assay buffer containing typically 10 nM GST-hK-RasG12C and 2 nM antiGST-Eu(K) (Cisbio, France). A SOS1 working solution is prepared in assay buffer containing typically 20 nM His-hSOS1 and 10 nM anti-6His-XL665 (Cisbio, France). An inhibitor control solution is prepared in assay buffer containing 10 nM anti-6His-XL665 without hSOS1.
as §2
All steps of the assay are performed at 20° C. A volume of 2.5 μl of the Ras working solution is added to all wells of the test plate using a Multidrop dispenser (Thermo Labsystems). After 2 min preincubation, 2.5 μl of the SOS1 working solution are added to all wells except for those wells at the side of the test plate that are subsequently filled with 2.5 μl of the inhibitor control solution. After 60 min incubation the fluorescence is measured with a Pherastar (BMG, Germany) using the HTRF module (excitation 337 nm, emission 1: 620nm, emission 2: 665 nm).
as §3

The conditions of assay [5]: combination of BAY-293 with ARS-853; cited from earlier work.

As to `CC(=O)N[C@H]1CCN(c2cc3c(N[C@H](C)c4cccc(C(F)F)c4F)nc(C)nc3cn2)C1`, the IC50 came out at 144 nM in assay [1], 101 nM in assay [2], 197 nM in assay [3] and 79.8 nM in assay [4].

On to `CC(=O)N[C@@H]1CCN(c2cc3c(N[C@H](C)c4cccc(C(F)F)c4F)nc(C)nc3c(C)n2)C1`, for which the IC50 is 209 nM in assay [1], 83.2 nM in assay [2], 255 nM in assay [3] and 56.8 nM in assay [4].

As for `Cc1nc(N[C@H](C)c2cccc(C(F)F)c2F)c2cc(F)ncc2n1`, the IC50 in assay [1], in assay [2], in assay [3] and in assay [4] was over 20000 nM in each case.

With `CCOc1cc2c(N[C@H](C)c3cccc(C(F)F)c3F)nc(C)nc2cn1`, the IC50 in assay [1] came to 357 nM; in assay [2], 308 nM; in assay [3] it was 851 nM; in assay [4] it was 134 nM.

Regarding `Cc1nc(N[C@H](C)c2cccc(C(F)F)c2F)c2cc(N3CCCC3)ncc2n1`, the IC50 in assay [1] was 251 nM; in assay [2], 172 nM; in assay [3], 320 nM; in assay [4], 185 nM.

`Cc1nc(N[C@H](C)c2cccc(C(F)F)c2F)c2cc(F)nc(C)c2n1`: the IC50 in assay [1], in assay [2] and in assay [4] was over 20000 nM in each case.

Take `CC(=O)N[C@@H]1CCN(c2cc3c(N[C@H](C)c4cccc(C(F)F)c4F)nc(C)nc3cn2)C1`: the IC50 in assay [1] was 110 nM; in assay [2] it was 92.3 nM; in assay [3] it was 187 nM; in assay [4], 77.3 nM.

For `CNCc1ccccc1-c1csc(C(C)Nc2nc(C)nc3cc(OC)c(OC)cc23)c1` (stereo not shown) [BAY-293], the “anti-proliferative activity in vitro of the combination” value in assay [5] is “Synergistic anti-proliferative activity”.
